These results are taken from PubChem BioAssay (NCI).

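Protocol summary: plate cells (96-well), add compound at 5 concentrations, incubate 48 h, interpolate endpoints linearly. Here, GI50 denotes the concentration required for 50% inhibition of growth. TGI: total growth inhibition.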 Some results are limits rather than exact numbers.

Test in all cases: NCI anticancer screen, dose series, 48 h
Assay [1] relates to A549 NSCLC.
For assay [2], the system named is DU-145 prostate.
Assay [3] concerns HCT-116 colon.
Assay [4] relates to HS 578T breast.
Assay [5] relates to M14 melanoma.
Assay [6] relates to MDA-MB-231 breast.
Assay [7] relates to MOLT-4 leukemia.
The test system of assay [8] is SF-268 CNS.
Assay [9] deals with SNB-75 CNS.
Assay [10] relates to T-47D breast.

As for `O=C(CCCc1ccc(N(CCCl)CCCl)cc1)NCc1ccccc1`, the GI50 is 6.88 µM in [1]; 5.04 µM in assay [2]; 4.57 µM in assay [3]; 15.6 µM in [4]; 4.18 µM in assay [5]; 21.3 µM in assay [6]. Also, the GI50 in assay [7] was 2.89 µM; in [8], 5.69 µM; in assay [9], 3.49 µM; in assay [10], 8.04 µM. The TGI was above 100 µM in assay [1]; 56.6 µM in assay [2]; 20.7 µM in assay [3]; above 100 µM in assay [4]; 24.2 µM in assay [5]; above 100 µM in assay [6]. Also, the TGI turned out to be 11.6 µM in assay [7], 57.8 µM in assay [8], 33 µM in assay [9] and 87.1 µM in assay [10].

As to `COC(=O)N[C@H]1CCc2cc(OC)c(OC)c(OC)c2-c2ccc(SC)c(=O)cc21`, the GI50 in [1], in assay [2], in assay [3], in [4], in assay [5] and in assay [6] was below 0.01 µM each time. Also, the GI50 in [7] was below 0.01 µM; in [8] it was below 0.01 µM; in assay [9] it was below 0.01 µM; in [10] it was above 100 µM. In addition, the TGI is above 100 µM in assay [1]; above 100 µM in assay [2]; above 100 µM in assay [3]; above 100 µM in assay [4]; above 26.9 µM in assay [5]; 29 µM in assay [6]. For the same compound, the TGI in assay [7] is above 70.5 µM; in [8] it was above 100 µM; in assay [9] it was above 100 µM; in assay [10] it was above 100 µM.

Take `O=P1(NCCCl)OCCCN1CCCl` (stereo not given): the TGI in assay [1] is 434 µM; in [2], above 500 µM; in assay [3], 440 µM; in assay [4] it was above 500 µM; in [5], above 500 µM; in assay [6], above 500 µM. The TGI was 391 µM in assay [7], 426 µM in assay [8], 435 µM in assay [9] and above 500 µM in assay [10].

On to `CC(=O)OCC1C(=O)OCC1C(=O)N1Cc2cc3ccccc3nc2C1` (stereo not given), for which the TGI in [1] was 30.6 µM; in assay [2] it was 14 µM; in [3], 3.5 µM; in [4], above 86.5 µM; in assay [5], 3.67 µM; in assay [6] it was 19.9 µM. The TGI in assay [7] was 4.25 µM; in assay [8], 22.6 µM; in assay [9], 14.9 µM; in assay [10], 5.69 µM.

As to `Nc1c(C(=O)Nc2cccc(Cl)c2)sc2nc3c(cc12)C(=O)CCC3`, the GI50 in [1] is 0.42 µM; in assay [2], 0.377 µM; in [3], 0.431 µM; in assay [4], 0.422 µM; in assay [5] it was 0.485 µM; in [6] it was 1.88 µM. Moreover, the GI50 is above 100 µM in assay [7], above 45.4 µM in assay [8], 0.227 µM in assay [9] and 0.422 µM in assay [10]. Besides, the TGI in [1], in assay [2], in assay [3], in assay [4], in assay [5] and in [6] was above 100 µM throughout. For the same compound, the TGI in [7] is above 100 µM; in [8] it was above 100 µM; in [9], 2.47 µM; in assay [10], above 100 µM.

Turning to `O=C1C=C(Nc2ccccc2)c2ccccc2C1=O`, the GI50 in [1] was 1.84 µM; in assay [2], 1.84 µM; in assay [3], 2.15 µM; in assay [4], 2.57 µM; in assay [5], 1.96 µM; in assay [6], 1.88 µM. The GI50 is 2.87 µM in [7], 2.67 µM in assay [8], 1.32 µM in assay [9] and 3.17 µM in assay [10]. Besides, the TGI amounted to 4.06 µM in assay [1]; 3.29 µM in assay [2]; 5.49 µM in assay [3]; 6.32 µM in assay [4]; 3.65 µM in assay [5]; 7.61 µM in assay [6]. In addition, the TGI in assay [7] is 9.47 µM; in [8], 8.71 µM; in assay [9], 2.67 µM; in [10] it was 9.88 µM.

Consider `Sc1cccc2cccnc12`, for which the GI50 in [1] was 0.497 µM; in [2] it was 0.626 µM; in assay [3] it was 0.411 µM; in assay [4], 2.81 µM; in assay [5], 0.457 µM; in [6], 1.36 µM. Further, the GI50 in [7] was 0.55 µM; in assay [8], 1.35 µM; in assay [9] it was 2.72 µM; in assay [10], 3.07 µM. In addition, the TGI in assay [1] was found to be 11.5 µM; in assay [2], 15.9 µM; in [3], 7.8 µM; in assay [4], 16.4 µM; in assay [5] it was 6.09 µM; in assay [6], 14.7 µM. Further, the TGI in [7] turned out to be 19.7 µM; in assay [8], 13.5 µM; in assay [9], 11.6 µM; in [10], 12.3 µM.

As to `N#CC1=C(N)Oc2c(sc3c(Br)cccc23)C1c1ccc([N+](=O)[O-])cc1` (stereo not given), the GI50 in [1] was 0.177 µM; in [2], 0.14 µM; in [3] it was 0.0799 µM; in [4], 0.0774 µM; in assay [5] it was 0.0964 µM; in [6], 0.514 µM. In addition, the GI50 in assay [7] is 0.223 µM; in assay [8] it was 0.547 µM; in [9], 0.0595 µM; in assay [10] it was 0.84 µM. In addition, the TGI in assay [1] is 13.5 µM; in assay [2] it was 9.26 µM; in assay [3], 11 µM; in [4], 16.4 µM; in [5], 11.8 µM; in assay [6], 9.67 µM. In addition, the TGI in [7] is 6.07 µM; in assay [8], 10.7 µM; in [9] it was 8.41 µM; in assay [10], 25.3 µM.

In the case of `CCOC(=O)c1noc2c1CCc1c-2cn(Cc2ccc(OC)cc2)c1-c1cc(OC)c(OC)c(OC)c1`, the GI50 is 3.8 µM in assay [1]; 2.32 µM in assay [2]; 0.399 µM in [3]; 2.99 µM in assay [4]; 0.41 µM in assay [5]; 2.7 µM in assay [6]. Also, the GI50 in [7] is 2.7 µM; in assay [8], 8.07 µM; in assay [9] it was 3.65 µM; in assay [10], above 100 µM. For the same compound, the TGI in assay [1] is above 100 µM; in [2], 6.14 µM; in assay [3], above 100 µM; in assay [4] it was above 100 µM; in [5], above 100 µM; in assay [6] it was above 100 µM. Also, the TGI in assay [7], in assay [8], in [9] and in assay [10] was above 100 µM each time.

On to `C=C(CO)C(=O)OC1CC(=C)C2CC(O)C(C)C2C2OC(=O)C(=C)C12` (stereo not given), for which the TGI is above 100 µM in assay [1]; above 100 µM in [2]; above 100 µM in assay [3]; 47.5 µM in [4]; 33.4 µM in assay [5]; 36.2 µM in assay [6]. Further, the TGI is 64.6 µM in assay [7], 39.4 µM in assay [8], 45.6 µM in assay [9] and above 100 µM in [10].

In the case of `CCN1CCN(CCC(=O)Nc2cccc(-n3cc(-c4ccncc4)c(-c4ccc(Cl)c(OC)c4)n3)c2)CC1`, the GI50 in [1] is 0.593 µM; in assay [2], 0.432 µM; in assay [3], 0.374 µM; in [4] it was 0.454 µM; in assay [5] it was 0.387 µM; in [6], 1.21 µM. Further, the GI50 in assay [7] was 0.661 µM; in assay [8], 0.663 µM; in [9] it was 0.392 µM; in assay [10] it was 0.841 µM. Further, the TGI is 2.29 µM in assay [1]; 5.96 µM in assay [2]; 1.62 µM in assay [3]; 3.85 µM in assay [4]; 1.73 µM in assay [5]; 2.92 µM in [6]. The TGI in [7] was 5.76 µM; in [8] it was 2.43 µM; in assay [9] it was 6.82 µM; in assay [10] it was 4.7 µM.

As for `C[C@@H]1CN2[C@H]3[C@@H]1CC[C@]31CCC(=O)O[C@]1(C)[C@H]1CC[C@H]3CCC=C3[C@@H]12`, the GI50 in [1], in assay [2], in [3], in [4], in [5] and in assay [6] was above 30 µM throughout. Also, the GI50 in [7], in assay [8], in [9] and in assay [10] was above 30 µM throughout. The TGI in assay [1], in assay [2], in [3], in assay [4], in assay [5] and in assay [6] was above 30 µM throughout. Moreover, the TGI in [7], in assay [8], in assay [9] and in [10] was above 30 µM each time.
